Like-named read-outs stand apart in the source and are kept apart here.
Legend:
[1] = molecular target: various β-lactamases (bacterial lysates) (Klebsiella pneumoniae, UniProt Q9F663); assay: biochemical; format: biochemical
[2] = molecular target: various β-lactamases (bacterial lysates) (Klebsiella pneumoniae, UniProt Q9F663, H272Y); assay: biochemical; format: biochemical
[3] = molecular target: various β-lactamases (bacterial lysates) (Salmonella typhimurium, UniProt P0A1V8); assay: biochemical; format: biochemical; settings: AZT IC50 KPX1001 OXA-2
Chain of various β-lactamases (bacterial lysates) (Salmonella typhimurium, UniProt P0A1V8) (P0A1V8 22-275): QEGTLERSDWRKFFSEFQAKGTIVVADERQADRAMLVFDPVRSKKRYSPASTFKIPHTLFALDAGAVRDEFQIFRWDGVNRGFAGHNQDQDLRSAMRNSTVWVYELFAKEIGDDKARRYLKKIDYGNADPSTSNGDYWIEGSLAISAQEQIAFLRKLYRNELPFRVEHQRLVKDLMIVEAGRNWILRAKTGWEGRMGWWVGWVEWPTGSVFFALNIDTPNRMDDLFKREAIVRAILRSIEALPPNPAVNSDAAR

[4] = molecular target: various β-lactamases (bacterial lysates) (Pseudomonas aeruginosa, UniProt P14489); assay: biochemical; format: biochemical; settings: AZT IC50 KP1007 OXA-10
Chain of various β-lactamases (bacterial lysates) (Pseudomonas aeruginosa, UniProt P14489) (P14489 20-266): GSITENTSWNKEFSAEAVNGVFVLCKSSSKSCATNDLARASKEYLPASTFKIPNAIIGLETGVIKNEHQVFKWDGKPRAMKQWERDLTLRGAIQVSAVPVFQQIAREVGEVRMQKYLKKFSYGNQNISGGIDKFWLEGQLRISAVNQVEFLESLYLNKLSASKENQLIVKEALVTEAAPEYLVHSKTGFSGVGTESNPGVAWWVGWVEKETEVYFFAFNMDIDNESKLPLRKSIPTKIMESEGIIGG

[5] = molecular target: various β-lactamases (bacterial lysates) (Escherichia coli, UniProt A0A649V088); assay: biochemical; format: biochemical; settings: read-out: AZT IC50 KP1005 CTX-M-14
Chain of various β-lactamases (bacterial lysates) (Escherichia coli, UniProt A0A649V088) (A0A649V088 29-291): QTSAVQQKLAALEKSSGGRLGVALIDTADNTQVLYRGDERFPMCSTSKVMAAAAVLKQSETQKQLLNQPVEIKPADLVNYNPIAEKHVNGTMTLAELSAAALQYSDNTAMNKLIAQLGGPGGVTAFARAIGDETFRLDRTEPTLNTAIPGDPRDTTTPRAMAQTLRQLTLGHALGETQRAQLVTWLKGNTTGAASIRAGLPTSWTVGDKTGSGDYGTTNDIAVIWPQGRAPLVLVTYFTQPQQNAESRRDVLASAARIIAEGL

[6] = molecular target: various β-lactamases (bacterial lysates) (Escherichia coli, UniProt A0A5R8T042); assay: biochemical; format: biochemical; settings: read-out: AZT IC50 KP1009 CTX-M-15
Chain of various β-lactamases (bacterial lysates) (Escherichia coli, UniProt A0A5R8T042) (A0A5R8T042 29-291): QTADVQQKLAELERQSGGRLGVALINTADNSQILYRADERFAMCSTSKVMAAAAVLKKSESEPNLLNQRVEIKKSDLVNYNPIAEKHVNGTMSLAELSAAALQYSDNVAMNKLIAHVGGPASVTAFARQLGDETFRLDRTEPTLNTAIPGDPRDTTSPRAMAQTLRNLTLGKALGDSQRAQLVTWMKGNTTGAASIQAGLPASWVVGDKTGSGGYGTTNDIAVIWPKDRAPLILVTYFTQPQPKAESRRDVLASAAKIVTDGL

[7] = system: strains expressing class A ESBLs; format: cell-based
Procedure: Selected β-lactamase inhibitors were also tested for their ability to potentiate the monobactam tigemonam.

[8] = lysate KP1004 KPC-2, aztreonam cleavage, read-out: AZT IC50 KP1004 KPC-2 (converted)
[9] = lysate KP1008 KPC-2, aztreonam cleavage, read-out: AZT IC50 KP1008 KPC-2

Chain of various β-lactamases (bacterial lysates) (Klebsiella pneumoniae, UniProt Q9F663, H272Y) (Q9F663 whole entry H272Y, looked up): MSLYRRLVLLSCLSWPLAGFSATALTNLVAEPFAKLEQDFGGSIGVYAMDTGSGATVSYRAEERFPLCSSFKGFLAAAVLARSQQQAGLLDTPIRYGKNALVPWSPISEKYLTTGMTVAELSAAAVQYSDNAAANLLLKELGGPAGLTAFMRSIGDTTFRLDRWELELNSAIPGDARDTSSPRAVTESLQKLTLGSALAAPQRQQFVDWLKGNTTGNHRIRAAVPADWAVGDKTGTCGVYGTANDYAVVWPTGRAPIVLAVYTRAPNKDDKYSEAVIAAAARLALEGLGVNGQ
Chain of various β-lactamases (bacterial lysates) (Klebsiella pneumoniae, UniProt Q9F663) (Q9F663 whole entry, looked up): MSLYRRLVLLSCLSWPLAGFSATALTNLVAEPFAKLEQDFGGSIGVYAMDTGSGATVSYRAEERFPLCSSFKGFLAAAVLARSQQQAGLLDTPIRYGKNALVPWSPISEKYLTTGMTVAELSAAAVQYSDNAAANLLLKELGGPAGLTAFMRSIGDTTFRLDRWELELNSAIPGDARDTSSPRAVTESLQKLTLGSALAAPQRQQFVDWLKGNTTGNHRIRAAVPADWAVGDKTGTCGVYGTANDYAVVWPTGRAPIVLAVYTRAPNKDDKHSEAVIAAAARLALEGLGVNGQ

Row | SMILES | IC50 [1, 8] | IC50 [1, 9] | IC50 [2] | IC50 [3] | IC50 [4] | IC50 [5] | IC50 [6] | MPC4 CTX-M-14 KP1005 [7] | MPC4 CTX-M-15 KP1009 [7] | MPC4 SHV-5 ec308 [7] | MPC4 SHV-12 KP1010 [7] | MPC4 SHV-18 KP1012 [7] | MPC4 TEM-10 EC1009 [7] | MPC4 TEM-10 ec302 [7] | MPC4 TEM-26 ec304 [7] | IC50 ([1]; AZT IC50 KP1004 KPC-2) | IC50 ([1]; AZT IC50 KP1008 KPC-2)
1 | O=C(O)CC1CCC[C@H](NC(=O)Cc2cccs2)B(O)O1 (stereo partly drawn) [Compound 63, 2-((3R)-2-hydroxy-3-(2-(thiophen-2-yl)acetamido)-1,2-oxaborepan-7-yl)acetic acid] | 1610 to 6430 nM | 1610 to 6430 nM | 1610 to 6430 nM | 1610 to 6430 nM | > 6430 nM | 1610 to 6430 nM | 1610 to 6430 nM | Z (key: X: MPC@4 of less than 2 μg/mL; Y: MPC@4 of 2 μg/mL to 10 μg/mL; Z: MPC@4 of greater than 10 μg/mL) | Y (key: X: MPC@4 of less than 2 μg/mL; Y: MPC@4 of 2 μg/mL to 10 μg/mL; Z: MPC@4 of greater than 10 μg/mL) | Z (key: X: MPC@4 of less than 2 μg/mL; Y: MPC@4 of 2 μg/mL to 10 μg/mL; Z: MPC@4 of greater than 10 μg/mL) | Y (key: X: MPC@4 of less than 2 μg/mL; Y: MPC@4 of 2 μg/mL to 10 μg/mL; Z: MPC@4 of greater than 10 μg/mL) | Y (key: X: MPC@4 of less than 2 μg/mL; Y: MPC@4 of 2 μg/mL to 10 μg/mL; Z: MPC@4 of greater than 10 μg/mL) | Z (key: X: MPC@4 of less than 2 μg/mL; Y: MPC@4 of 2 μg/mL to 10 μg/mL; Z: MPC@4 of greater than 10 μg/mL) | Z (key: X: MPC@4 of less than 2 μg/mL; Y: MPC@4 of 2 μg/mL to 10 μg/mL; Z: MPC@4 of greater than 10 μg/mL) | Z (key: X: MPC@4 of less than 2 μg/mL; Y: MPC@4 of 2 μg/mL to 10 μg/mL; Z: MPC@4 of greater than 10 μg/mL) |  | 
2 | O=C(O)C[C@@H]1CC[C@H](NC(=O)c2ccccc2)B(O)O1 [Compound 37, 2-((3R,6S)-3-benzamido-2-hydroxy-1,2-oxaborinan-6-yl)acetic acid] | < 1800 nM | < 1800 nM | < 1800 nM | 1800 to 7220 nM | 1800 to 7220 nM | < 1800 nM | < 1800 nM | Z (key: X: MPC@4 of less than 2 μg/mL; Y: MPC@4 of 2 μg/mL to 10 μg/mL; Z: MPC@4 of greater than 10 μg/mL) | Z (key: X: MPC@4 of less than 2 μg/mL; Y: MPC@4 of 2 μg/mL to 10 μg/mL; Z: MPC@4 of greater than 10 μg/mL) | Z (key: X: MPC@4 of less than 2 μg/mL; Y: MPC@4 of 2 μg/mL to 10 μg/mL; Z: MPC@4 of greater than 10 μg/mL) | Z (key: X: MPC@4 of less than 2 μg/mL; Y: MPC@4 of 2 μg/mL to 10 μg/mL; Z: MPC@4 of greater than 10 μg/mL) | Z (key: X: MPC@4 of less than 2 μg/mL; Y: MPC@4 of 2 μg/mL to 10 μg/mL; Z: MPC@4 of greater than 10 μg/mL) | Z (key: X: MPC@4 of less than 2 μg/mL; Y: MPC@4 of 2 μg/mL to 10 μg/mL; Z: MPC@4 of greater than 10 μg/mL) | Z (key: X: MPC@4 of less than 2 μg/mL; Y: MPC@4 of 2 μg/mL to 10 μg/mL; Z: MPC@4 of greater than 10 μg/mL) | Z (key: X: MPC@4 of less than 2 μg/mL; Y: MPC@4 of 2 μg/mL to 10 μg/mL; Z: MPC@4 of greater than 10 μg/mL) |  | 
3 | O=C(O)[C@H]1/C(=C/CO)O[C@@H]2CC(=O)N21 [Clavulanic Acid, reference compound] |  |  | 7430 nM | 402 nM | 7430 nM | 275 nM | 1240 nM | 2.5 µg/mL | 1.25 µg/mL | <=0.6 μg/mL | <=0.6 μg/mL | <=0.6 μg/mL | <=0.6 μg/mL | 2.5 µg/mL | <=0.6 μg/mL | 3720 nM | 11100 nM
4 | O=C(O)C[C@@H]1CC[C@H](NC(=O)CCc2ccccc2)B(O)O1 [Compound 38, 2-((3R,6S)-2-hydroxy-3-(3-phenylpropanamido)-1,2-oxaborinan-6-yl)acetic acid] | < 1640 nM | < 1640 nM | < 1640 nM | 1640 to 6550 nM | > 6550 nM | < 1640 nM | 1640 to 6550 nM |  |  |  |  |  |  |  |  |  | 

— patent publication US11090319B2, “Therapeutic uses of pharmaceutical compositions comprising cyclic boronic acid ester derivatives” (Melinta Subsidiary Corp., priority 2010, dated 2021)
